Marks after values point to notes of the source that are not given here.
Test system: bedbug (Cimex lectularius)
Assay: Contact efficacy against bedbugs on various surfaces (wood, PVC, wallpaper, mattress, glass)
Format: in vivo
Conditions: for efficacy on wood, PVC, wallpaper, mattress and glass (summary in words): Example 106, imidacloprid 0.008% or 0.0016% (30 and 6 mg a.i./m^2)
Experimental: Adult Cimex lectularius, susceptible strain, were used. A solution of the active ingredient in acetone was prepared. In the same mode a complete […]. All these works were done under drawing off conditions. After evaporation of the acetone (30′) the dishes were closed by a glass lid and transferred into the test room.
One day later ten bedbugs, anaesthetized with CO2, were counted into each dish. At regular intervals, knock down was recorded (cumulatively).
The same methodology was used as was used in Example 105.

[1] = Glass, 0.008% imidacloprid (30 mg/m^2) in acetone
[2] = Mattress, 0.0016% imidacloprid (6 mg/m^2) in acetone
[3] = Mattress, 0.008% imidacloprid (30 mg/m^2) in acetone
[4] = PVC, 0.0016% imidacloprid (6 mg/m^2) in acetone
[5] = PVC, 0.008% imidacloprid (30 mg/m^2) in acetone
[6] = Wallpaper, 0.0016% imidacloprid (6 mg/m^2) in acetone
[7] = Wallpaper, 0.008% imidacloprid (30 mg/m^2) in acetone
[8] = Wood, 0.0016% imidacloprid (6 mg/m^2) in acetone
[9] = Wood, 0.008% imidacloprid (30 mg/m^2) in acetone

## O=[N+]([O-])NC1=NCCN1Cc1ccc(Cl)nc1 [imidacloprid]
  efficacy on wood, PVC, wallpaper, mattress and glass (summary in words): No efficacy was found on wood, PVC, wallpaper and mattress
Listed as 0.008% imidacloprid
  efficacy on wood, PVC, wallpaper, mattress and glass (summary in words): On glass, 0.008% imidacloprid alone acted relatively fast and had killed all bed bugs within one day
[1]
  % knock down or moribund after 1 h: 0%
  % knock down or moribund after 2 h: 100* %
  % knock down or moribund after 4 h: 85%
  % knock down or moribund after 6 h: 90%
  % knock down or moribund after 1 d: 100%
  % knock down or moribund after 2 d: 100%
  % knock down or moribund after 6 d: 100%
[2]
  % knock down or moribund after 1 h: 0%
  % knock down or moribund after 2 h: 0%
  % knock down or moribund after 4 h: 0%
  % knock down or moribund after 6 h: 0%
  % knock down or moribund after 1 d: 0%
  % knock down or moribund after 2 d: 0%
  % knock down or moribund after 6 d: 0%
[3]
  % knock down or moribund after 1 h: 0%
  % knock down or moribund after 2 h: 0%
  % knock down or moribund after 4 h: 0%
  % knock down or moribund after 6 h: 0%
  % knock down or moribund after 1 d: 0%
  % knock down or moribund after 2 d: 0%
  % knock down or moribund after 6 d: 0%
[4]
  % knock down or moribund after 1 h: 0%
  % knock down or moribund after 2 h: 0%
  % knock down or moribund after 4 h: 0%
  % knock down or moribund after 6 h: 0%
  % knock down or moribund after 1 d: 0%
  % knock down or moribund after 2 d: 0%
  % knock down or moribund after 6 d: 20%
[5]
  % knock down or moribund after 1 h: 0%
  % knock down or moribund after 2 h: 0%
  % knock down or moribund after 4 h: 0%
  % knock down or moribund after 6 h: 0%
  % knock down or moribund after 1 d: 0%
  % knock down or moribund after 2 d: 0%
  % knock down or moribund after 6 d: 40%
[6]
  % knock down or moribund after 1 h: 0%
  % knock down or moribund after 2 h: 0%
  % knock down or moribund after 4 h: 0%
  % knock down or moribund after 6 h: 0%
  % knock down or moribund after 1 d: 0%
  % knock down or moribund after 2 d: 0%
  % knock down or moribund after 6 d: 0%
[7]
  % knock down or moribund after 1 h: 0%
  % knock down or moribund after 2 h: 0%
  % knock down or moribund after 4 h: 0%
  % knock down or moribund after 6 h: 0%
  % knock down or moribund after 1 d: 0%
  % knock down or moribund after 2 d: 0%
  % knock down or moribund after 6 d: 0%
[8]
  % knock down or moribund after 1 h: 0%
  % knock down or moribund after 2 h: 0%
  % knock down or moribund after 4 h: 0%
  % knock down or moribund after 6 h: 0%
  % knock down or moribund after 1 d: 0%
  % knock down or moribund after 2 d: 0%
  % knock down or moribund after 6 d: 10%
[9]
  % knock down or moribund after 1 h: 0%
  % knock down or moribund after 2 h: 0%
  % knock down or moribund after 4 h: 0%
  % knock down or moribund after 6 h: 0%
  % knock down or moribund after 1 d: 0%
  % knock down or moribund after 2 d: 0%
  % knock down or moribund after 6 d: 0%

From patent US9028856B2, “Synergistic pesticide compositions” (priority 2008, dated 2015)
